pIC50: −log10 of the molar value. Some results are limits rather than exact numbers.

The record followed here is ChEMBL document CHEMBL4130402, “Antiprotozoal Linear Furanosesterterpenoids from the Marine Sponge Ircinia oros” (J Nat Prod, 2017).

For test [1], the system named is L6. The experiment in a line: Cytotoxicity against rat L6 cells after 72 hrs by alamar blue assay. The class given is cell-based. As to conditions: L6, 72 h.
Test [2] has as its system Trypanosoma brucei rhodesiense. As to the kind of experiment: Antiprotozoal activity against blood stream form of Trypanosoma brucei rhodesiense STIB900 after 72 hrs by alamar blue assay. The class given is functional, organism-based. Conditions: STIB900, 72 h.
In test [3] the test system is Trypanosoma cruzi. The experiment in a line: Antiprotozoal activity against trypomastigote form of Trypanosoma cruzi Tulahuen C2C4 infected in rat L6 cells after 96 hrs by CPRG/Nonidet-based […]. The class given is functional, organism-based. Conditions: Tulahuen C2C4, L6, 96 h.
For test [4], the system named is Leishmania donovani. The experiment in a line: Antiprotozoal activity against amastigote form of Leishmania donovani MHOM/ET/67/L82 after 72 hrs by alamar blue assay. In kind it is functional, organism-based. Conditions: MHOM/ET/67/L82, 72 h.
For test [5], the system named is Plasmodium falciparum. The experiment in a line: Antiprotozoal activity against erythrocytic form of chloroquine/pyrimethamine-resistant Plasmodium falciparum K1 after 48 hrs by [3H]-hypoxanthine incorporation assay. The class given is functional, organism-based.

The compound `COc1cc([C@@H]2c3cc4c(cc3[C@H](O)[C@H]3COC(=O)[C@H]23)OCO4)cc(OC)c1OC` [PODOFILOX] gave a pIC50 in test [1] of 8.00.

For `CC1=C(O)/C(=C/[C@H](C)CCC/C(C)=C/CCc2coc(Cc3ccoc3)c2)OC1=O` [IRCININ 1], the negative logarithm of the IC50 (pIC50) is 4.01 in test [2]; 3.92 in test [3]; 4.51 in test [4]; 4.24 in test [5]; 3.82 in test [1].

Regarding `CC1=C(O)/C(=C/[C@H](C)CC/C=C(/C)CCCc2coc(Cc3ccoc3)c2)OC1=O` [IRCININ 2], the negative-log IC50 (pIC50) in test [2] is 4.19; in test [3], 3.96; in test [4], 4.55; in test [5], 4.25; in test [1], 3.85.

`Nc1nc(N)nc(Nc2ccc([As]3SCC(CO)S3)cc2)n1` (stereo unspecified) [MELARSOPROL] showed a pIC50 in test [2] of 7.82.

For `O=C(Cn1ccnc1[N+](=O)[O-])NCc1ccccc1` [BENZNIDAZOLE], the negative-log IC50 (pIC50) in test [3] is 5.51.

As for `CC1=C(O)/C(=C/[C@H](C)CCC/C(C)=C/CCC2=CC(Cc3ccoc3)N(CC(=O)O)C2=O)OC1=O` (stereo partly specified), the pIC50 in test [2] was 3.89; in test [4] it was 4.02; in test [5] it was less than 4.00; in test [1], less than 3.70.

Turning to `CC1=C(O)/C(=C/[C@H](C)CCC/C(C)=C/CCc2coc(CC3=CCN(CC(=O)O)C3=O)c2)OC1=O`, the pIC50 was 3.89 in test [2], 3.92 in test [4], 4.02 in test [5] and less than 3.70 in test [1].
